These are literature values, as cited in PMC3775475 (European journal of medicinal chemistry, 2013).

The target of this series is kappa-OR (UniProt P41145).
kappa-OR, sequence (P41145 whole entry): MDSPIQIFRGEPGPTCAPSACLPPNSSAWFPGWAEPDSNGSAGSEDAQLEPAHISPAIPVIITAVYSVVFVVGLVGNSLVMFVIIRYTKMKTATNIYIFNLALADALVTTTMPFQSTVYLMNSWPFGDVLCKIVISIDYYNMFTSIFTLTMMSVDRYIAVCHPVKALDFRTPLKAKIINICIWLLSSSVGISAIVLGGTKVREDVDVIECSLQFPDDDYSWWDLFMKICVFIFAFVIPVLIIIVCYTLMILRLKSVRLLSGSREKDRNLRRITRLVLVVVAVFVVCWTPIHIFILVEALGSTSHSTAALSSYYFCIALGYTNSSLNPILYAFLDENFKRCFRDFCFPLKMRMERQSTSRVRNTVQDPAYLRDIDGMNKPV

One may read the Ki as a measure of affinity in units of concentration, obtained from inhibition or displacement. With `CC[C@@H](C)[C@@H](NC(=O)[C@@H](Cc1ccccc1)NC(=O)[C@H](N)Cc1ccccc1)C(=O)N[C@H](CCCNC(=N)N)C(N)=O` [compound 4], the Ki is 2.4 nM.

“ff(D-nle)r-NH2 (R1 f, R2 f, R3 nle, R4 r) [compound 1]”: the Ki was 1.2 nM.
